Assay results published in patent US9801901B2, “Alginate oligomers for use in overcoming multidrug resistance in bacteria” (priority 2009, dated 2017).
In brackets after ≈: the same amount, converted by molar mass. Read-outs that look alike come from different tables or passages of the source. Marks after values point to notes of the source that are not given here.

Legend:
[1] = tested on: Pseudomonas aeruginosa, Klebsiella pneumoniae and Acinetobacter baumannii strains; test: MIC assay of Example 1, summary over the strains; format: cell-based; conditions: Example 1, Tables 1 and 2, all strains
V11 5702 (Wales) E. coli = test: MIC assay, CAMHB with alginate oligomer, no visible growth; format: cell-based; conditions: Table 5, V11 MDR E.coli
[2] = tested on: Pseudomonas aeruginosa ATCC 39324, mucoid type strain (R79); test: as above; format: cell-based; conditions: R79
[3] = tested on: Pseudomonas aeruginosa (R22, PSA, V1); test: MIC-assay, Mueller-Hinton broth with G-block alginate, 384-well, OD600
[4] = tested on: V19 non MDR Acinetobacter baumannii; test: MIC assay, CAMHB with M-block alginate oligomer, no visible growth; format: cell-based; conditions: Table 7, V19 non MDR Acin. baum
From the text: The study described in Example 1 was repeated with the following strains of Acinetobacter baumannii, antibiotics and M-block alginate oligomer in place of OligoG CF-5/20 as detailed in Table 7. The M-block oligomer is 100% M with a DPn of 15 to 18,

MDR Pseudomonas strains = test: MIC assay of Example 1, summary over the MDR Pseudomonas strains; format: cell-based, Pseudomonas aeruginosa
[5] = tested on: MDR strains of Pseudomonas aeruginosa, Klebsiella pneumoniae, Burkholderia cepacia, Acinetobacter lwoffii, Acinetobacter baumannii and E. coli; test: MIC assay of Example 2, summary over the strains of Tables 4, 5 and 6; format: cell-based; conditions: Example 2, Tables 4, 5 and 6
[6] = tested on: Acinetobacter baumannii (Egypt, V9); test: MIC-assay, Mueller-Hinton broth with G-block alginate, 384-well, OD600
[7] = tested on: V23 1322 Burkholderia cepacia; test: MIC assay, CAMHB with alginate oligomer, no visible growth; format: cell-based
[8] = tested on: Staphylococcus aureus (MRSA) U50; test: MIC-assay, Mueller-Hinton broth with G-block alginate, 384-well, OD600 (Table 12); format: cell-based; conditions: MRSA 1040s, U50 MDR
From the text: Minimum inhibitory concentration (MICs) of different antibiotics for strains of Streptococcus oralis and Staphylococcus aureus (MRSA) displaying MDR phenotypes in the presence of varying concentrations of OligoCF-5/20 (0-10%). (MIC values are expressed in μg ml^−1).

[9] = tested on: Acinetobacter lwoffii (Egypt, V10); test: MIC-assay, Mueller-Hinton broth with G-block alginate, 384-well, OD600
[10] = tested on: Klebsiella pneumoniae KP05 506 from India (V3); test: MIC assay, CAMHB with alginate oligomer, no visible growth; format: cell-based; conditions: for MIC: V3 KP05 506
[11] = tested on: Burkholderia cepacia (LMG18941, ATCC-BAA-246); test: MIC-assay, Mueller-Hinton broth with G-block alginate, 384-well, OD600
[12] = Table 9, G-block (OligoCF-5/20) 0%
[13] = Table 9, G-block (OligoCF-5/20) 2%
[14] = Table 9, G-block (OligoCF-5/20) 6%
[15] = Table 9, G-block (OligoCF-5/20) 10%

CC[C@H]1OC(=O)[C@H](C)[C@@H](O[C@H]2C[C@@](C)(OC)[C@@H](O)[C@H](C)O2)[C@H](C)[C@@H](O[C@@H]2O[C@H](C)C[C@H](N(C)C)[C@H]2O)[C@](C)(O)C[C@@H](C)CN(C)[C@H](C)[C@@H](O)[C@]1(C)O [Azithromycin]
change of MIC with increasing amounts of OligoG CF-5/20 [1]: decreasing MICs | MIC (V11 5702 (Wales) E. coli; Escherichia coli, OligoCF-5/20 0G, read-out: MIC): 32 µg/mL (≈ 42.7 µM) | MIC (V11 5702 (Wales) E. coli; OligoCF-5/20 +2% G): 16^† μg/ml | MIC (V11 5702 (Wales) E. coli; OligoCF-5/20 +6% G): 16^† μg/ml | MIC (V11 5702 (Wales) E. coli; OligoCF-5/20 +10% G): 32 µg/mL (≈ 42.7 µM) | MIC ([2]; Pseudomonas aeruginosa, ATCC39324, Table 1, OligoCF-5/20 0G, read-out: MIC): 128 µg/mL (≈ 171 µM) | MIC ([2]; Pseudomonas aeruginosa, ATCC39324, Table 1, OligoCF-5/20 +2% G, read-out: MIC): 64 µg/mL (≈ 85.4 µM) | MIC ([2]; Pseudomonas aeruginosa, ATCC39324, Table 1, OligoCF-5/20 +6% G, read-out: MIC): 16 µg/mL (≈ 21.4 µM) | MIC ([2]; Pseudomonas aeruginosa, ATCC39324, Table 1, OligoCF-5/20 +10% G, read-out: MIC): 4 µg/mL (≈ 5.34 µM) | MIC ([2]; Table 2, OligoCF-5/20 0G): 128^† | MIC ([2]; Table 2, OligoCF-5/20 +2% G): 64^† | MIC ([2]; Table 2, OligoCF-5/20 +6% G): 16^† | MIC ([2]; Table 2, OligoCF-5/20 +10% G): 4^† | MIC ([3]; Table 8, G-block (OligoCF-5/20) 2%): 32 µg/mL (≈ 42.7 µM) | MIC ([3]; Table 8, G-block (OligoCF-5/20) 6%): 32 µg/mL (≈ 42.7 µM) | MIC ([3]; Table 8, G-block (OligoCF-5/20) 10%): 8 µg/mL (≈ 10.7 µM) | MIC ([4]; M-block oligomer 0M): 32 µg/mL (≈ 42.7 µM) | MIC ([4]; M-block oligomer +2% M): 16 µg/mL (≈ 21.4 µM) | MIC ([4]; M-block oligomer +6% M): 16 µg/mL (≈ 21.4 µM) | MIC ([4]; M-block oligomer +10% M): 16 µg/mL (≈ 21.4 µM) | effectiveness when used in combination with the alginate oligomers (MDR Pseudomonas strains): more effective | change of MIC with increasing amounts of OligoG CF-5/20 [5]: decreasing MICs | MIC [6, 12]: 4 µg/mL (≈ 5.34 µM) | MIC [6, 13]: < 1 µg/mL | MIC [6, 14]: < 1 µg/mL | MIC [6, 15]: < 1 µg/mL | MIC ([7]; Burkholderia cepacia, Table 5, V23 MDR Burk cep, OligoCF-5/20 0G, read-out: MIC): 128 µg/mL (≈ 171 µM) | MIC ([7]; Burkholderia cepacia, Table 6, V23, Experiment 1 (18-03-10), OligoCF-5/20 0G, read-out: MIC): 64 µg/mL (≈ 85.4 µM) | MIC ([7]; Burkholderia cepacia, Table 6, V23, Experiment 2 (18-03-10), OligoCF-5/20 0G, read-out: MIC): 32 µg/mL (≈ 42.7 µM) | MIC ([7]; Burkholderia cepacia, Table 6, V23, Experiment 3 (19-03-10), OligoCF-5/20 0G, read-out: MIC): 16 µg/mL (≈ 21.4 µM) | MIC ([7]; Table 5, V23 MDR Burk cep, OligoCF-5/20 +2% G): 64^† μg/ml | MIC ([7]; Table 5, V23 MDR Burk cep, OligoCF-5/20 +6% G): 16^† μg/ml | MIC ([7]; Table 5, V23 MDR Burk cep, OligoCF-5/20 +10% G): 4 µg/mL (≈ 5.34 µM) | MIC ([7]; Table 6, V23, Experiment 1 (18-03-10), OligoCF-5/20 +2% G): 64 µg/mL (≈ 85.4 µM) | MIC ([7]; Table 6, V23, Experiment 1 (18-03-10), OligoCF-5/20 +6% G): 64 µg/mL (≈ 85.4 µM) | MIC ([7]; Table 6, V23, Experiment 1 (18-03-10), OligoCF-5/20 +10% G): 32^† μg/ml | MIC ([7]; Table 6, V23, Experiment 2 (18-03-10), OligoCF-5/20 +2% G): 32 µg/mL (≈ 42.7 µM) | MIC ([7]; Table 6, V23, Experiment 2 (18-03-10), OligoCF-5/20 +6% G): 16^† μg/ml | MIC ([7]; Table 6, V23, Experiment 2 (18-03-10), OligoCF-5/20 +10% G): 16^† μg/ml | MIC ([7]; Table 6, V23, Experiment 3 (19-03-10), OligoCF-5/20 +2% G): 16 µg/mL (≈ 21.4 µM) | MIC ([7]; Table 6, V23, Experiment 3 (19-03-10), OligoCF-5/20 +6% G): 16 µg/mL (≈ 21.4 µM) | MIC ([7]; Table 6, V23, Experiment 3 (19-03-10), OligoCF-5/20 +10% G): 16 µg/mL (≈ 21.4 µM) | MIC ([8]; G-block (OligoCF-5/20) 0%): 512 µg/mL (≈ 684 µM) | MIC ([8]; G-block (OligoCF-5/20) 2%): 256 µg/mL (≈ 342 µM) | MIC ([8]; G-block (OligoCF-5/20) 6%): 256 µg/mL (≈ 342 µM) | MIC ([8]; G-block (OligoCF-5/20) 10%): 256 µg/mL (≈ 342 µM) | MIC [9, 12]: < 1 µg/mL | MIC [9, 13]: < 1 µg/mL | MIC [9, 14]: < 1 µg/mL | MIC [9, 15]: < 1 µg/mL | effectiveness in conjunction with alginate oligomers ([10]; Example 1, KP05 506): more effective | MIC ([10]; Klebsiella pneumoniae, Table 1, OligoCF-5/20 0G, read-out: MIC): 32 µg/mL (≈ 42.7 µM) | MIC ([10]; Klebsiella pneumoniae, Table 1, OligoCF-5/20 +2% G, read-out: MIC): 16 µg/mL (≈ 21.4 µM) | MIC ([10]; Klebsiella pneumoniae, Table 1, OligoCF-5/20 +6% G, read-out: MIC): 16 µg/mL (≈ 21.4 µM) | MIC ([10]; Klebsiella pneumoniae, Table 1, OligoCF-5/20 +10% G, read-out: MIC): 8 µg/mL (≈ 10.7 µM) | MIC ([10]; Table 2, OligoCF-5/20 0G): 32^† | MIC ([10]; Table 2, OligoCF-5/20 +2% G): 16^† | MIC ([10]; Table 2, OligoCF-5/20 +6% G): 16^† | MIC ([10]; Table 2, OligoCF-5/20 +10% G): 8^† | MIC ([11]; ATCCBAA246|LMG18941, Table 8, G-block (OligoCF-5/20) 0%): 64 µg/mL (≈ 85.4 µM) | MIC ([11]; ATCCBAA246|LMG18941, Table 8, G-block (OligoCF-5/20) 2%): 32 µg/mL (≈ 42.7 µM) | MIC ([11]; ATCCBAA246|LMG18941, Table 8, G-block (OligoCF-5/20) 6%): 16 µg/mL (≈ 21.4 µM) | MIC ([11]; ATCCBAA246|LMG18941, Table 8, G-block (OligoCF-5/20) 10%): 16 µg/mL (≈ 21.4 µM)
